Ki data for 1 compound are collected here from paper PMC9229160 (Pharmaceuticals, 2022).

In the assay the target is T1, human kappa-opioid receptor (KOR) (Homo sapiens, UniProt P41145).
T1 construct: gene OPRK1
The experiment in a line: [3H]U69, […] radioligand competition binding, CHO-hKOR membranes; […]GTPγS antagonism (Ke […]).

In turn, `Cc1c(NC(=O)c2ccc(Cl)cc2)cc(-c2ccccc2)n1CCCN1CCOCC1` [Compound A] yielded an inhibitory constant (Ki) of 1350 ± 320 nM.
